Assay results from patent US8349827B2, “Substituted dipyrido-pyrimido-diazepine and benzo-pyrido-pyrimido compounds” (ArQule, Inc., priority 2009, dated 2013).

Assays:
MDA-MB-231 = assay: MTS assay, MDA-MB-231 cells; assay type: cell-based; details: Homo sapiens, 72 hours
Method in brief: (§1)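 First, seed 3000 cells per well in low-serum (1% FBS) DMEM and culture 18 h. Next, add compounds prepared at 300× in DMSO and diluted 1:40 in DMEM; incubate 72 h. Finally, add MTS/PMS for 4 h and measure absorbance at 492 nm.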

PC-3 = assay: MTS assay, PC-3 cells; assay type: cell-based; details: Homo sapiens, 72 hours
Method in brief: as §1

PACA-2 = assay: MTS assay, PACA-2 cells; assay type: cell-based; details: 72 hours
Method in brief: as §1

ABL = ABL (Homo sapiens, UniProt P00519); assay: ABL Kinase Activity Assay (Elisa), ABL; assay type: biochemical; details: ATP 100 μM, read-out: Abl Enzymetic assay (Elisa) % inhibition
Description: (§2) ABL Kinase Activity Assay
(§3) The disclosed compounds were assayed for their ability to inhibit the activity of ABL kinase. Nunc Maxisorb plates were coated with streptavidin by overnight incubation with 100 μL per well of 1 μg/ml streptavidin in DPBS. Prior to the experiment, the plates were washed with TBST (3×200 μL) and blocked for at least 3 hours by adding 150 μL of 5% BSA/TBST. The plates were washed with TBST (3×200 μL/well) and left dry immediately before the capture step.
(§4) The disclosed test compounds and controls (Gleevec) were prepared using the following assay buffer@10× desired final concentration (50 mM Tris pH 7.0, 0.02 mg/ml BSA, 10 mM MgCl2, 0.1 mM Na3VO4, 1 mM EGTA, 0.01% NP-40, 1 mM DTT in 10% glycerol/water). In a reaction plate, 5 μl test article (or control) and 30 μl ABL or ABL T315I (0.089 nM final concentration, in the above buffer) were added rapidly. The plate was incubated for 20 minutes. To the reaction plate was added ATP (100 μM final concentration) and AblTide (128 nM final concentration) in a volume of 15 μl. The plate was incubated at room temperature for one hour.
(§5) From the reaction plate, 40 μl was transferred to the streptavidin coated plate. The capture plate was incubated at room temperature for 30 minutes, then washed 3× with TBST. To the capture plate was added 100 μL/well of cell signaling anti-phospho tyrosine at a dilution of 1:3000 in 2% BSA/TBST. The plate was incubated for two hours at room temperature then washed 3× with TBST. To the capture plate was added 100 μL/well of alkaline phosphatase tagged goat anti mouse antibody at a dilution of 1:4000 in 2% BSA/TBST. The plate was incubated for one hour at room temperature then washed 3× with TBST.
(§6) The fluorescent readout was initiated by the addition of 100 μl/well of Attophos reagent (6 mg/10 mL). The reading was done on the Perkin Elmer Envision system.

KATO III = assay: MTS assay, KATO III cells; assay type: cell-based; details: Homo sapiens, 72 hours
Method in brief: as §1

NCI-H1299 = assay: MTS assay, NCI-H1299 cells; assay type: cell-based; details: Homo sapiens, 72 hours
Method in brief: as §1

ABL T315I = ABL T315I (Homo sapiens, UniProt P00519, T315I); assay: ABL Kinase Activity Assay (Elisa), ABL T315I; assay type: biochemical; details: ATP 100 μM, read-out: Abl(T315I) Enzymetic assay (Elisa) % inhibition
Description: as §2, §3, §4, §5, §6

DLD-1 = assay: MTS assay, DLD-1 cells; assay type: cell-based; details: Homo sapiens, 72 hours
Method in brief: as §1

Compound	inhibition at 10 µM (MDA-MB-231)	inhibition at 10 µM (PC-3)	inhibition at 10 µM (PACA-2)	inhibition at 10 µM (ABL)	inhibition at 10 µM (KATO III)	inhibition at 10 µM (NCI-H1299)	inhibition at 10 µM (ABL T315I)	inhibition at 10 µM (DLD-1)
COc1ccccc1CNc1ncc2c(n1)-c1cccnc1Nc1cnccc1-2 [Example 22, N-(2-methoxybenzyl)-9H-dipyrido[2,3-b:4′,3′-f]pyrimido[4,5-d]azepin-2-amine]	80 to 100%	50 to 79%	< 50%	< 50%	< 50%	50 to 79%	< 50%	50 to 79%
c1ccc(OCCNc2ncc3c(n2)-c2cccnc2Nc2cnccc2-3)cc1 [Example 26, N-(2-phenoxyethyl)-9H-dipyrido[2,3-b:4′,3′-f]pyrimido[4,5-d]azepin-2-amine]	< 50%	< 50%	< 50%	80 to 100%	50 to 79%	< 50%	80 to 100%	< 50%
c1cnc2c(c1)-c1nc(NCC3CCNCC3)ncc1-c1ccncc1N2 [Example 60, N-(piperidin-4-ylmethyl)-9H-dipyrido[2,3-b:4′,3′-f]pyrimido[4,5-d]azepin-2-amine]	80 to 100%	80 to 100%	80 to 100%	50 to 79%	80 to 100%	50 to 79%	< 50%	50 to 79%
Fc1cccc(CCNc2ncc3c(n2)-c2cccnc2Nc2cnccc2-3)c1 [Example 25, N-[2-(3-fluorophenyl)ethyl]-9H-dipyrido[2,3-b:4′,3′-f]pyrimido[4,5-d]azepin-2-amine]	80 to 100%	80 to 100%	80 to 100%	50 to 79%	80 to 100%	80 to 100%	80 to 100%	80 to 100%
O[C@H]1CC[C@H](Nc2ncc3c(n2)-c2cccnc2Nc2cnccc2-3)CC1 [Example 27, trans-4-(9H-dipyrido[2,3-b:4′,3′-f]pyrimido[4,5-d]azepin-2-ylamino)cyclohexanol]	50 to 79%	50 to 79%	< 50%	80 to 100%	80 to 100%	< 50%	80 to 100%	< 50%
CN(C)CCCCNc1ncc2c(n1)-c1cccnc1Nc1cnccc1-2 [Example 51, N′-9H-dipyrido[2,3-b:4′,3′-f]pyrimido[4,5-d]azepin-2-yl-N,N-dimethylbutane-1,4-diamine]	80 to 100%	80 to 100%	< 50%	50 to 79%	80 to 100%	< 50%	< 50%	< 50%
FC(F)(F)c1ccccc1CNc1ncc2c(n1)-c1cccnc1Nc1cnccc1-2 [Example 3, N-[2-(trifluoromethyl)benzyl]-9H-dipyrido[2,3-b:4′,3′-f]pyrimido[4,5-d]azepin-2-amine]	< 50%	< 50%	< 50%	50 to 79%	< 50%	50 to 79%	80 to 100%	< 50%
Cc1cccc(CNc2ncc3c(n2)-c2cccnc2Nc2cnccc2-3)c1 [Example 40, N-(3-methylbenzyl)-9H-dipyrido[2,3-b:4′,3′-f]pyrimido[4,5-d]azepin-2-amine]	50 to 79%	80 to 100%	80 to 100%	80 to 100%	50 to 79%	50 to 79%	80 to 100%	50 to 79%
COc1ccc(CCNc2ncc3c(n2)-c2cccnc2Nc2cnccc2-3)cc1 [Example 42, N-[2-(4-methoxyphenyl)ethyl]-9H-dipyrido[2,3-b:4′,3′-f]pyrimido[4,5-d]azepin-2-amine]	< 50%	< 50%	< 50%	80 to 100%	80 to 100%	< 50%	80 to 100%	50 to 79%
c1ccc(-c2ccc(CNc3ncc4c(n3)-c3cccnc3Nc3cnccc3-4)cc2)cc1 [Example 34, N-(biphenyl-4-ylmethyl)-9H-dipyrido[2,3-b:4′,3′-f]pyrimido[4,5-d]azepin-2-amine]	80 to 100%	80 to 100%	80 to 100%	80 to 100%	80 to 100%	80 to 100%	80 to 100%	80 to 100%
CN(C)CCCCCNc1ncc2c(n1)-c1cccnc1Nc1cnccc1-2 [Example 48, N′-9H-dipyrido[2,3-b:4′,3′-f]pyrimido[4,5-d]azepin-2-yl-N,N-dimethylpentane-1,5-diamine]	50 to 79%	50 to 79%	< 50%	80 to 100%	< 50%	–	80 to 100%	< 50%
Clc1ccc(CNc2ncc3c(n2)-c2cccnc2Nc2cnccc2-3)cc1 [Example 13, N-(4-chlorobenzyl)-9H-dipyrido[2,3-b:4′,3′-f]pyrimido[4,5-d]azepin-2-amine]	< 50%	< 50%	< 50%	50 to 79%	50 to 79%	50 to 79%	80 to 100%	50 to 79%
Nc1ncc2c(n1)-c1cccnc1Nc1ccccc1-2 [Example 62, 9H-pyrido[2,3-b]pyrimido[4,5-d][1]benzazepin-2-amine]	< 50%	< 50%	< 50%	50 to 79%	< 50%	–	50 to 79%	–
Fc1ccc(CNc2ncc3c(n2)-c2cccnc2Nc2cnccc2-3)cc1 [Example 11, N-(4-fluorobenzyl)-9H-dipyrido[2,3-b:4′,3′-f]pyrimido[4,5-d]azepin-2-amine]	80 to 100%	80 to 100%	80 to 100%	80 to 100%	80 to 100%	80 to 100%	80 to 100%	80 to 100%
COc1cccc(CCNc2ncc3c(n2)-c2cccnc2Nc2cnccc2-3)c1 [Example 24, N-[2-(3-methoxyphenyl)ethyl]-9H-dipyrido[2,3-b:4′,3′-f]pyrimido[4,5-d]azepin-2-amine]	< 50%	< 50%	< 50%	80 to 100%	50 to 79%	< 50%	80 to 100%	< 50%
Clc1ccccc1CNc1ncc2c(n1)-c1cccnc1Nc1cnccc1-2 [Example 8, N-(2-chlorobenzyl)-9H-dipyrido[2,3-b:4′,3′-f]pyrimido[4,5-d]azepin-2-amine]	80 to 100%	80 to 100%	80 to 100%	50 to 79%	80 to 100%	80 to 100%	80 to 100%	80 to 100%
Fc1ccc(CNc2ncc3c(n2)-c2cccnc2Nc2cnccc2-3)cc1F [Example 33, N-(3,4-difluorobenzyl)-9H-dipyrido[2,3-b:4′,3′-f]pyrimido[4,5-d]azepin-2-amine]	80 to 100%	80 to 100%	80 to 100%	80 to 100%	80 to 100%	80 to 100%	80 to 100%	80 to 100%
CCCN1CCC(Nc2ncc3c(n2)-c2cccnc2Nc2cnccc2-3)CC1 [Example 23, N-(1-propylpiperidin-4-yl)-9H-dipyrido[2,3-b:4′,3′-f]pyrimido[4,5-d]azepin-2-amine]	80 to 100%	80 to 100%	80 to 100%	50 to 79%	80 to 100%	80 to 100%	< 50%	80 to 100%
